The numbers were not newly measured in patent US10124030B2, “Skincare preparations” (KARYNG, LLC, priority 2016, dated 2018), which cites them from elsewhere.

The test system of the series is epidermal SIRT1 protein expression. Particulars: 0.02% vs untreated with UVB; UVB 0.2 J/cm^2.

Turning to `Oc1ccc(C=Cc2cc(O)cc(O)c2)cc1` [Resveratrol], the “modulation of epidermal SIRT1 protein expression” value is −22%.
